pIC50: −log10 of the molar value. Read-outs that look alike come from different tables or passages of the source.
Tests used:
Format in all cases: biochemical
MMP-9 = MMP-9 (Homo sapiens, UniProt P14780); assay: MMP-9 inhibition (thiopeptide or fluorescent peptide substrate assay); conditions: for pIC50: read-out: MMP-9 IC50; for inhibition at 1 µM: read-out: MMP-9 % inhibition, footnote: 1µM
MMP-13 = MMP-13 (Homo sapiens, UniProt P45452); assay: MMP-13 inhibition (thiopeptide or fluorescent peptide substrate assay); conditions: for inhibition at 1 µM: read-out: MMP-13 % inhibition, footnote: 1µM
TACE = TACE (Homo sapiens, UniProt P78536); assay: TACE inhibition (fluorescent peptidyl substrate); conditions: for inhibition at 1 µM: at 1µM concentration
Chain of TACE (P78536 215-824): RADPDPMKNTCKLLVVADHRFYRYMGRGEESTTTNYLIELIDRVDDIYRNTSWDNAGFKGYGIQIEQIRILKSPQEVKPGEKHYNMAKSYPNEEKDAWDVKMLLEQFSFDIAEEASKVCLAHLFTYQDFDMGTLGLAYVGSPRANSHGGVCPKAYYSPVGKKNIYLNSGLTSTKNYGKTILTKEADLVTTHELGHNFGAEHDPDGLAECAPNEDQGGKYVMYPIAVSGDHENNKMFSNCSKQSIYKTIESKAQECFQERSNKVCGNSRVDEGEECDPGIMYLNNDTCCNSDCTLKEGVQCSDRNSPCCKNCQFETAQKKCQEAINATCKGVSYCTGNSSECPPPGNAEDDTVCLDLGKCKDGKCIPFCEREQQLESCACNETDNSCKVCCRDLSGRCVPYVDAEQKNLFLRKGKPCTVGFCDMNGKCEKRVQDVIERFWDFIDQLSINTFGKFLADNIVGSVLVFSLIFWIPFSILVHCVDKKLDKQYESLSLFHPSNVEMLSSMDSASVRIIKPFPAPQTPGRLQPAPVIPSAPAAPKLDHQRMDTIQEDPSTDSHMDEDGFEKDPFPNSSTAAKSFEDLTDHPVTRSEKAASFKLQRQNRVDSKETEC

MMP-1 = target: T1, MMP-1 (Homo sapiens, UniProt P03956); assay: MMP-1 inhibition (thiopeptide or fluorescent peptide substrate assay); conditions: for pIC50: read-out: MMP-1 IC50; for inhibition at 1 µM: read-out: MMP-1 % inhibition, footnote: 1µM; for MMP-1 % inhibition: concentration given as (10), unit not given
T1 sequence (P03956 100-469): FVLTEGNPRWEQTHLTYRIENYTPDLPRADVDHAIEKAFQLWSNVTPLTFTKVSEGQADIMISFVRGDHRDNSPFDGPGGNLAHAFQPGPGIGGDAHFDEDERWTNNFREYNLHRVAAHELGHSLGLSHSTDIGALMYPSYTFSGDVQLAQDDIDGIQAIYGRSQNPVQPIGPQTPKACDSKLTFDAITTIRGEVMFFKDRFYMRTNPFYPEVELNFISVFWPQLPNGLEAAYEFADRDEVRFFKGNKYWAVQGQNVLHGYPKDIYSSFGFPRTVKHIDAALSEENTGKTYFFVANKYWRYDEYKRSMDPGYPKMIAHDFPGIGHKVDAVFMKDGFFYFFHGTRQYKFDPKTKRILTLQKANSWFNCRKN

[1] = concentration given as (.1), unit not given

Chain of MMP-9 (P14780 94-707): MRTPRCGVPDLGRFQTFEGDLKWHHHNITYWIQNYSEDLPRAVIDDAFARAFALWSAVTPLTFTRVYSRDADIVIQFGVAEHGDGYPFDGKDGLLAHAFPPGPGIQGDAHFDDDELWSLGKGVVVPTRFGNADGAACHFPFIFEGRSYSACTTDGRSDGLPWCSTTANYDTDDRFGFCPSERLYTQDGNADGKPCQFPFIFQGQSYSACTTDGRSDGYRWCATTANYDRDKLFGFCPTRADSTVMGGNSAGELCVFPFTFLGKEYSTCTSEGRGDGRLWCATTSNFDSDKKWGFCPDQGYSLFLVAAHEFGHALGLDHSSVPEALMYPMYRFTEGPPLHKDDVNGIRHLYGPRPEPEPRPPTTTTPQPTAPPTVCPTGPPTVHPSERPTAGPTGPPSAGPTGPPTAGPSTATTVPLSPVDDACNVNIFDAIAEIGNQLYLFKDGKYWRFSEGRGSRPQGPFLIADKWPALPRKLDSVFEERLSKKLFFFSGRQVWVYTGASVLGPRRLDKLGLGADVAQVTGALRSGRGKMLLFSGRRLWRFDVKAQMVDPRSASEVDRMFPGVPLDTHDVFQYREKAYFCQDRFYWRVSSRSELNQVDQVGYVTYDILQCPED

pIC50 (MMP-9) | pIC50 (MMP-13; read-out: MMP-13 IC50) | pIC50 (TACE; read-out: TACE IC50) | pIC50 (MMP-1) | SMILES | further results
7.51 | 6.87 | 6.28 | 5.94 | COc1ccc(S(=O)(=O)N(Cc2ccccc2)c2c(OCCO)cccc2C(=O)NO)cc1 [Example 345, 2-[Benzyl-(4-methoxy-benzenesulfonyl)-amino]-N-hydroxy-3-(2-hydroxy-ethoxy)-benzamide] | 
8.10 | 8.05 | 7.49 | 6.40 | COc1ccc(S(=O)(=O)N(C)c2c(CCC(=O)NO)cc(Br)cc2C(=O)NO)cc1 [Example 349, 5-Bromo-N-hydroxy-3-[2-(hydroxycarbamoyl)-ethyl]-2-[(4-methoxy-benzenesulfonyl)-methyl-amino]-benzamide] | 
8.30 | 7.68 | 6.43 | 6.35 | COc1ccc(S(=O)(=O)N(C)c2c(CCC(=O)NO)cccc2C(=O)NO)cc1 [Example 350] | 
7.21 | 6.85 | 6.11 |  | COc1ccc(S(=O)(=O)N(C)c2c(C)cc(C#Cc3ccc(-c4ccccc4)cc3)cc2C(=O)NO)cc1 [Example 353, 5-Biphenyl-4-ylethynyl-N-hydroxy-2-[(4-methoxy-benzenesulfonyl)-methyl-amino]-3-methyl-benzamide] | inhibition at 1 µM (MMP-1): 23%
7.55 | 7.70 | 6.54 | 6.15 | COc1ccc(S(=O)(=O)N(C)c2c(C)cc(CCc3ccc(-c4ccccc4)cc3)cc2C(=O)NO)cc1 [Example 355, 5-(2-Biphenyl-4-yl-ethyl)-N-hydroxy-2-[(4-methoxy-benzenesulfonyl)-methyl-amino]-3-methyl-benzamide] | 
7.00 | 6.97 | 5.98 |  | CCCCCCCCCCC#Cc1cc(C)c(N(C)S(=O)(=O)c2ccc(OC)cc2)c(C(=O)NO)c1 [Example 358, 5-Dodec-1-ynyl-N-hydroxy-2-[(4-methoxy-benzenesulfonyl)-methyl-amino]-3-methyl-benzamide] | MMP-1 % inhibition (MMP-1): 25%(10)
6.28 | 5.90 | 5.85 |  | CCCCCCCCCCCCc1cc(C)c(N(C)S(=O)(=O)c2ccc(OC)cc2)c(C(=O)NO)c1 [Example 360, 5-Dodecyl-N-hydroxy-2-[(4-methoxy-benzenesulfonyl)-methyl-amino]-3-methyl-benzamide] | MMP-1 % inhibition (MMP-1): 14%(10)
7.70 | 7.27 | 6.86 | 6.35 | COCc1cccc(C(=O)NO)c1N(Cc1cccnc1)S(=O)(=O)c1ccc(OC)cc1 [Example 363, N-Hydroxy-2-[(4-methoxy-benzenesulfonyl)-pyridin-3-ylmethyl-amino]-3-methoxymethyl-benzamide] | 
7.92 | 7.89 | 5.57 | 6.22 | COc1ccc(S(=O)(=O)N(Cc2cccnc2)c2c(C(=O)NO)cccc2C(=O)OC(C)(C)C)cc1 [Example 367, N-Hydroxy-2-[(4-methoxy-benzenesulfonyl)-pyridin-3-ylmethyl-amino]-isophthalamic acid tert-butyl ester] | 
7.59 | 7.23 | 6.27 | 5.89 | COC(=O)c1cccc(C(=O)NO)c1N(C)S(=O)(=O)c1ccc(OC)cc1 [Example 373, N-Hydroxy-2-[(4-methoxy-benzenesulfonyl)-methyl-amino]-isophthalamic acid methyl ester] | 
 |  |  |  | COc1ccc(S(=O)(=O)N(Cc2cccnc2)c2c(C(=O)O)cccc2C(=O)NO)cc1 [Example 374, N-Hydroxy-2-[(4-methoxy-benzenesulfonyl)-pyridin-3-ylmethyl-amino]-isophthalamic acid] | inhibition at 1 µM (MMP-9): 36%; inhibition at 1 µM (MMP-13): 17%; inhibition at 1 µM (TACE): 29%; MMP-1 % inhibition (MMP-1): 56%(10)
8.15 | 7.74 | 6.45 | 6.48 | COc1ccc(S(=O)(=O)N(Cc2ccccn2)c2c(C)cccc2C(=O)NO)cc1 [Example 375, N-Hydroxy-2-[(4-methoxy-benzenesulfonyl)-pyridin-2-ylmethyl-amino]-3-methyl-benzamide] | 
8.08 | 7.74 | 6.19 | 6.41 | COc1ccc(S(=O)(=O)N(Cc2ccncc2)c2c(C)cccc2C(=O)NO)cc1 [Example 376, N-Hydroxy-2-[(4-methoxy-benzenesulfonyl)-pyridin-4-ylmethyl-amino]-3-methyl-benzamide] | 
8.33 | 7.82 | 6.59 | 6.91 | CCN(CC)Cc1ccc(CN(c2c(C)cccc2C(=O)NO)S(=O)(=O)c2ccc(OC)cc2)cc1 [Example 377, 2-[(4-Diethylaminomethyl-benzyl)-(4-methoxy-benzenesulfonyl)-amino]-N-hydroxy-3-methyl-benzamide] | 
7.96 | 7.72 | 6.66 | 6.33 | CCN(CC)CC#CCN(c1c(C)cccc1C(=O)NO)S(=O)(=O)c1ccc(OC)cc1 [Example 381, 2-[(4-Diethylamino-but-2-ynyl)-(4-methoxy-benzenesulfonyl)-amino]-N-hydroxy-3-methyl-benzamide] | 
 |  |  |  | CCOC(=O)CCCN(c1c(C)cccc1C(=O)NO)S(=O)(=O)c1ccc(OC)cc1 [Example 383, 4-[(2-Hydroxycarbamoyl-6-methyl-phenyl)-(4-methoxy-benzenesulfonyl)-amino]-butyric acid ethyl ester] | inhibition at 1 µM (MMP-9): 87%; inhibition at 1 µM (MMP-13): 48%; inhibition at 1 µM (TACE): 45%; inhibition at 1 µM (MMP-1): 34%
 |  |  |  | CCOC(=O)CCCCN(c1c(C)cccc1C(=O)NO)S(=O)(=O)c1ccc(OC)cc1 [Example 384, 5-[(2-Hydroxycarbamoyl-6-methyl-phenyl)-(4-methoxy-benzenesulfonyl)-amino]-pentanoic acid ethyl ester] | inhibition at 1 µM (MMP-9): 52%; inhibition at 1 µM (MMP-13): 61%; inhibition at 1 µM (TACE): 55%; inhibition at 1 µM (MMP-1): 48%
 |  |  |  | COc1ccc(S(=O)(=O)N(CC(=O)OCc2ccccc2)c2c(C)cccc2C(=O)NO)cc1 [Example 385, [(2-Hydroxycarbamoyl-6-methyl-phenyl)-(4-methoxy-benzenesulfonyl)-amino]-acetic acid benzyl ester] | inhibition at 1 µM (MMP-9): 65%; inhibition at 1 µM (MMP-13): 66%; inhibition at 1 µM (TACE): 56%; inhibition at 1 µM (MMP-1): 25%
 |  |  |  | COc1ccc(S(=O)(=O)N(CC(=O)NCc2ccccn2)c2c(C)cccc2C(=O)NO)cc1 [Example 386, N-Hydroxy-2-[[(4-methoxyphenyl)sulfonyl][2-oxo-2-[(2-pyridinylmethyl)amino]ethyl]amino]-3-methylbenzamide] | MMP-9 % inhibition (MMP-9; [1]): 16%(.1); MMP-13 % inhibition (MMP-13; [1]): 11%(.1); inhibition at 1 µM (TACE): 46%; inhibition at 1 µM (MMP-1): 21%
7.02 | 6.51 |  | 5.57 | COc1ccc(S(=O)(=O)N(CC(=O)N2CCN(C)CC2)c2c(C)cccc2C(=O)NO)cc1 [Example 387, N-Hydroxy-2-{(4-methoxy-benzenesulfonyl)-[2-(4-methyl-piperazin-1-yl)-2-oxo-ethyl]-amino}-3-methyl-benzamide] | inhibition at 1 µM (TACE): 38%
 |  |  |  | COc1ccc(S(=O)(=O)N(CCO)c2c(C)cccc2C(=O)NO)cc1 [Example 388, N-Hydroxy-2-[(2-hydroxy-ethyl)-(4-methoxy-benzenesulfonyl)-amino]-3-methyl-benzamide] | inhibition at 1 µM (MMP-9): 47%; inhibition at 1 µM (MMP-13): 39%; inhibition at 1 µM (TACE): 35%; MMP-1 % inhibition (MMP-1): 66%(10)
8.70 | 7.41 | 6.20 | 7.20 | COc1ccc(S(=O)(=O)N(Cc2ccccc2)c2c(C)cc(N(C)C)cc2C(=O)NO)cc1 [Example 389, 2-[Benzyl-(4-methoxy-benzenesulfonyl)-amino]-5-dimethylamino-N-hydroxy-3-methyl-benzamide] | 
8.16 |  |  | 6.75 | COc1ccc(S(=O)(=O)N(Cc2ccc(OCCN3CCCCC3)cc2)c2c(C)cccc2C(=O)NO)cc1 [Example 393, N-Hydroxy-2-[[(4-methoxyphenyl)sulfonyl][[4-[2-(1-piperidinyl)ethoxy]phenyl]methyl]amino]-3-methylbenzamide] | pIC50 (MMP-13): 7.25; pIC50 (TACE): 6.56
8.64 | 8.06 | 6.67 | 7.02 | CCN(CC)CCOc1ccc(CN(c2c(C)cccc2C(=O)NO)S(=O)(=O)c2ccc(OC)cc2)cc1 [Example 394, 2-[[4-(2-Diethylamino-ethoxy)-benzyl]-(4-methoxy-benzenesulfonyl)-amino]-N-hydroxy-3-methyl-benzamide] | 

SMILES | pIC50 (MMP-9) | pIC50 (MMP-13; read-out: MMP-13 IC50) | pIC50 (TACE; read-out: TACE IC50) | pIC50 (MMP-1) | further results
COc1ccc(S(=O)(=O)N(Cc2ccccc2)c2c(OCCO[Si](C)(C)C(C)(C)C)cccc2C(=O)NO)cc1 [Example 344, 2-[Benzyl-(4-methoxy-benzenesulfonyl)-amino]-3-[2-(tert-butyl-dimethyl-silanyloxy)-ethoxy]-N-hydroxy-benzamide] | 7.16 | 6.49 | 6.28 | 5.93 | 
COc1ccc(S(=O)(=O)N(Cc2ccc(CN(C)C)cc2)c2c(C)cccc2C(=O)NO)cc1 [Example 378, 2-[(4-Dimethylaminomethyl-benzyl)-(4-methoxy-benzenesulfonyl)-amino]-N-hydroxy-3-methyl-benzamide] | 8.54 | 7.96 | 6.61 | 6.67 | 

From patent EP0938471B1, “THE PREPARATION AND USE OF ORTHO-SULFONAMIDO ARYL HYDROXAMIC ACIDS AS MATRIX METALLOPROTEINASE AND TACE INHIBITORS” (priority 1996, dated 1998)
